Tests used:
[1] = Safety and tolerability, ascending single-dose study; assay type: in vivo, human
Excerpt: (§1) In the ascending single-dose study, 52 AEs were considered to be related to the study drug, the most common of which was somnolence/sleepiness, drowsiness, and tiredness (15 of 16 subjects dosed with MK-1064), consistent with the intended pharmacological activity. […] In the PSG study, 13 of the 20 subjects enrolled reported ≥1 clinical AE. Of 24 clinical AEs reported, 18 were considered to be related to study treatment, all of which were mild or moderate in intensity. One report of transient sleep paralysis following MK-1064 250 mg was noted, while the most common MK-1064-related AEs were headache (3 subjects), nightmares (2 subjects) and dizziness (1 subject) (Supplementary Table 2).
MK-1064 safety, PK and PD were evaluated in a randomised, double-blind, placebo-controlled, alternating panel, single oral ascending-dose first-in-human study (see Fig. 5). Participants were unmedicated healthy male subjects (age 18–45 years) without a history of physical or mental illnesses or sleep abnormalities. Two panels received alternating single ascending oral doses of MK-1064 in up to 5 treatment periods (Panel A: 5, 25, 100 and 200 mg [fasting conditions], 25 mg [fed condition], or matching placebo; Panel B: 10, 50, 150 and 250 mg [all daytime administration], 50 mg [evening administration], or matching placebo). Within each period, subjects were randomized to active treatment (N = 6) and placebo (N = 2) groups. There was a minimum of 3 days between ascending doses occurring between alternating subject panels to enable safety data review; treatments within subject panels were separated by a minimum 7-day washout period. The safety and tolerability of MK-1064 were monitored throughout the study by repeated evaluations of AEs, clinical assessments (semi-recumbent and orthostatic vital signs measurements, 12-lead electrocardiograms (ECGs), physical examinations, neurologic examinations), and safety laboratory tests (chemistry, hematology, urinalysis).

[2] = Safety and tolerability, PSG study; assay type: in vivo, human
Excerpt: as §1
Twenty healthy male subjects between the ages of 18 and 45 years were recruited to a double-blind, randomized, 4-period, crossover study to evaluate the effects of single doses of MK-1064. Subjects were without a history of physical or mental illnesses, had no history of sleep abnormalities, and were not regularly taking medication. Subject inclusion required a sleep score ≤6 on the Pittsburgh Sleep Quality Index at the time of screening, and qualified subjects underwent a PSG screening prior to randomization to exclude those with latent sleep disturbances. In each of the 4 treatment periods, subjects were randomized to receive single doses of MK-1064 (50, 120, or 250 mg) or matching placebo according to a balanced crossover design (see Fig. 5). Briefly, 20 subjects were randomized to 4 panels (n = 5 each). Each panel then received each of the four treatments (placebo, 50, 120, 250 mg MK-1064) in 4 different study periods where each period allocated the 4 different treatments to the 4 different subject panels. Progression through each period rotated the 4 different treatments among the subject panels such that each panel ultimately received all 4 treatments. In all 4 study periods, subjects were admitted for a pre-dose habituation night. On the following treatment night, subjects were administered a single dose of study medication in a blinded manner approximately 1 hour before their habitual bedtime. Study medication was administered following a ≥4-hour fast. Dosing in different treatment periods was separated by a washout of at least 7 days for each subject. PSG recording commenced at 1 hour post-dose and continued during undisturbed sleep for 8 hours overnight. Visual scoring of each 30-sec epoch of PSG recording to wake or one of four sleep states (S1, S2, SWS, collectively referred to as NREM, and REM) was performed according to standard and established Rechtschaffen and Kales criteria. Obtained scores were then used to calculate efficacy assessment measures including latency to persistent sleep (LPS) (min), wake after sleep onset (WASO) (min), sleep efficiency (SE) (%), and total sleep time (TST) (min). LPS is the time from lights off to the first epoch of 20 consecutive epochs of non-wake stage; WASO is the time in wake stage between the onset of persistent sleep and the time of lights on; and SE is the proportion of time between lights off and lights on that was spent in sleep. In addition to efficacy parameters, latency to REM (LREM) (min), equal to the time from lights off to the first epoch of REM, and the proportion (%) of TST spent in NREM and REM were calculated. Estimation of the effects of treatment on PSG endpoints relative to placebo, including the calculation of confidence intervals and p-values were done using a mixed-effect statistical model typical for crossover studies. Specifically, logarithm of an analyzed endpoint represented the response variable, and treatment dose, treatment period, and carryover effect were fixed-effect explanatory variables. Subject effect was the random effect with the within-subject covariance assumed to be of the unstructured type. […] SAS/STAT® Version 9.3 software (SAS Institute, Cary NC) was used in the analysis.

Q: With `COc1ccc(CNC(=O)c2cc(-c3cncc(Cl)c3)cnc2-c2ccccn2)nc1OC` [MK-1064, 5″-chloro-N-[(5,6-dimethoxypyridin-2-yl)methyl]-2,2′:5′, 3″-terpyridine-3′-carbo xamide] as the compound, how does the “subjects who experienced headaches” value ([1]; ascending single-dose study) read?
A: The value was “Nine”.

Q: And the “suspected serious adverse reactions” value ([1]; ascending single-dose study)?
A: The value was “no suspected serious adverse reactions were observed”.

Q: And the “AEs considered to be related to the study drug” value ([1]; ascending single-dose study, 5–250 mg)?
A: Its value is 52.

Q: And the “subjects with somnolence/sleepiness, drowsiness, and tiredness” value ([1]; ascending single-dose study, subjects dosed with MK-1064)?
A: Its value is 15 of 16.

Q: What about the tolerability ([1]; both Phase I studies, healthy male subjects) of the same compound?
A: The tolerability was “well tolerated”.

Q: What about the “MK-1064-related AE dizziness” value [2] of the same compound?
A: Its value is 1 subject.

Q: And the “MK-1064-related AE headache” value [2]?
A: Its value is 3 subjects.

Q: And the “MK-1064-related AE nightmares” value [2]?
A: The value was 2 subjects.

Q: What about the “clinical AEs reported” value [2] of the same compound?
A: Its value is 24.

Q: And the “reports of transient sleep paralysis” value ([2]; 250 mg)?
A: The value was “One”.

Q: What about the “subjects reporting ≥1 clinical AE” value ([2]; 20 subjects enrolled, crossover 50, 120, 250 mg and placebo) of the same compound?
A: Its value is 13 subjects.

Q: And the “clinical AEs considered to be related to study treatment” value ([2]; all mild or moderate)?
A: The value was 18.
